Test results from publication PMC4171615, “Discovery of selective inhibitors of Glutaminase-2, which inhibit mTORC1, activate autophagy and inhibit proliferation in cancer cells” (Oncotarget, 2014).
Changes are numbered by the printed parent chain.

Legend:
KGA_ H519Q/D520K = molecular target: T1, KGA_ H519Q/D520K (Homo sapiens, UniProt O94925, D520K/H519Q); experiment: Glutaminase activity assay, KGA mutant H519Q/D520K; format: biochemical
T1 construct: a KGA cDNA fragment of 1644 bp (residues Leu123-Leu669); His-tag (N); made in house; host or cells: Escherichia coli
T1 sequence (O94925 123-669 H519Q/D520K): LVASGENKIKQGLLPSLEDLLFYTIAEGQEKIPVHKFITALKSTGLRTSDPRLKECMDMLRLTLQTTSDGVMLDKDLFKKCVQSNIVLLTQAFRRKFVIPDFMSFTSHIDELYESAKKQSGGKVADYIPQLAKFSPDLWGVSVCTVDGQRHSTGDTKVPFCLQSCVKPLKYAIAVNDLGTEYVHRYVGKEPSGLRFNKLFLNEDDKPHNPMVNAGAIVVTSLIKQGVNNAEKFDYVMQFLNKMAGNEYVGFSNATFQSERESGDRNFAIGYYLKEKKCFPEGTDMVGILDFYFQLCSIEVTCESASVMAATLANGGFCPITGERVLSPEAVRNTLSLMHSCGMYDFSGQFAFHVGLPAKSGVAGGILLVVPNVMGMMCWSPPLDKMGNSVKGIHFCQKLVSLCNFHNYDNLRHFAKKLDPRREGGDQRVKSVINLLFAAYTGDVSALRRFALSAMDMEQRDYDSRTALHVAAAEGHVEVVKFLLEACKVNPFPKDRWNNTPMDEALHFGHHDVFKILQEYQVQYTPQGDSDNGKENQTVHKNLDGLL
Experimental: (§1) Human glutaminase activity was measured using a two-step assay as described previously. A microtiter assay format was used to facilitate the collection of multiple data points. Typically, 10 μl of compound, which was dissolved in DMSO, was added to 80 μl of an initial assay mix (0.1 mM hKGA, 0.2 mM EDTA and 50 mM Tris/acetate, pH 8.6). Samples were incubated at 25°C for 10 min and then 10 μl of 200 mM glutamine were added to the reaction mix. After adding glutamine, the reactions were incubated at 37°C for 60 min and then quenched by the addition of 10 μl of 0.6 M HCl. Subsequently, 100 μl of a second reaction mixture (3.7 units of purified bovine liver glutamate dehydrogenase, 160 mM Tris/acetate [pH 9.4], 400 mM hydrazine, 5 mM ADP and 2 mM NAD^+) was added to the stopped first reaction mixture and incubated for 30 min at 25°C. The absorbance at 340 nm was measured using a Wallac Victor2V plate reader (PerkinElmer), fitted with a 340 nm excitation filter. Sample absorbance was measured against a blank, containing no human glutaminase.
Site-directed mutagenesis was performed on the pET28a(+)-GAB or pET28a(+)-KGA plasmids using PfuUltra II Fusion HS DNA polymerase (Agilent Technologies) to create the GAB and KGA mutants. […] The sequence alignment was compared with crystal structure of the GAC (PDB code: 3UO9) and the resulting model of GAB was analyzed using the Swiss-PDB server. […]

KGA_F318Y/F322S = molecular target: T2, KGA_F318Y/F322S (Homo sapiens, UniProt O94925, F318Y/F322S); experiment: Glutaminase activity assay, KGA mutant F318Y/F322S; format: biochemical
T2 construct: a KGA cDNA fragment of 1644 bp (residues Leu123-Leu669); His-tag (N); made in house; host or cells: Escherichia coli
T2 sequence (O94925 123-669 F318Y/F322S): T1 sequence (O94925 123-669 H519Q/D520K) with F196Y, F200S, Q397H, K398D
Experimental: as §1, with “Typically, 10 μl of compound, which was dissolved in DMSO, was added to 80 μl of an initial assay mix (0.1 mM hKGA, 0.2 mM EDTA and 50 mM Tris/acetate, pH 8.6).” left out
Site-directed mutagenesis was performed on the pET28a(+)-GAB or pET28a(+)-KGA plasmids using PfuUltra II Fusion HS DNA polymerase (Agilent Technologies) to create the GAB and KGA mutants. The deep view program (Version 3.7) of the Swiss-MODEL server was used to generate the three dimensional structure of homologous modeled GAB. Using the integrated sequence alignment tools and structural superimposition algorithms, the target sequence was mapped on the modeling templates.

IC50 (KGA_ H519Q/D520K): 230 ± 30 nM
IC50 (KGA_F318Y/F322S): 2400 nM
SMILES: CCCCCCCCCCCCCC(CC1=CC(=O)C=C(OC)C1=O)OC(C)=O (centres unmarked) [AV-1]
